Laboratory results taken from the supplement of paper PMC10307832.

Columns and labels:
Assay in all cases: relative viability (nuclei count vs DMSO), 5 days (fraction); higher = more cells survive
Gemcitabine + Linsitinib = compound: Nc1ccn([C@@H]2O[C@H](CO)[C@@H](O)C2(F)F)c(=O)n1 [Gemcitabine] + C[C@]1(O)C[C@@H](c2nc(-c3ccc4ccc(-c5ccccc5)nc4c3)c3c(N)nccn32)C1 [Linsitinib] (partner 1 µM)
In short: (§1)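 Relative viability equals treated-well nuclei counts divided by vehicle-well nuclei counts. Counts came from 4× images of lung cancer cell lines grown in 1536-well plates for 5 days after pin-tool dosing on the day after seeding. Dosing used one drug alone or a fixed anchor-drug dose plus five library-drug doses (not always all listed) in √10 steps, and values are medians of duplicate plates.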

Gemcitabine + Pemetrexed = compound: Nc1ccn([C@@H]2O[C@H](CO)[C@@H](O)C2(F)F)c(=O)n1 [Gemcitabine] + Nc1nc2[nH]cc(CCc3ccc(C(=O)N[C@@H](CCC(=O)O)C(=O)O)cc3)c2c(=O)[nH]1 [Pemetrexed] (partner 0.2 µM)
In short: as §1

Gemcitabine + Vorinostat = compound: Nc1ccn([C@@H]2O[C@H](CO)[C@@H](O)C2(F)F)c(=O)n1 [Gemcitabine] + O=C(CCCCCCC(=O)Nc1ccccc1)NO [Vorinostat] (partner 1 µM)
In short: as §1

Gemcitabine + Olaparib = compound: Nc1ccn([C@@H]2O[C@H](CO)[C@@H](O)C2(F)F)c(=O)n1 [Gemcitabine] + O=C(c1cc(Cc2n[nH]c(=O)c3ccccc23)ccc1F)N1CCN(C(=O)C2CC2)CC1 [Olaparib] (partner 8 µM)
In short: as §1

| Cell Line | relative viability (Gemcitabine + Linsitinib; first compound 0.001 µM) | relative viability (Gemcitabine + Linsitinib; first compound 0.003162 µM) | relative viability (Gemcitabine + Linsitinib; first compound 0.01 µM) | relative viability (Gemcitabine + Linsitinib; first compound 0.03162 µM) | relative viability (Gemcitabine + Linsitinib; first compound 0.1 µM) | relative viability (Gemcitabine + Pemetrexed; first compound 0.001 µM) | relative viability (Gemcitabine + Pemetrexed; first compound 0.003162 µM) | relative viability (Gemcitabine + Pemetrexed; first compound 0.01 µM) | relative viability (Gemcitabine + Pemetrexed; first compound 0.03162 µM) | relative viability (Gemcitabine + Pemetrexed; first compound 0.1 µM) | relative viability (Gemcitabine + Vorinostat; first compound 0.001 µM) | relative viability (Gemcitabine + Vorinostat; first compound 0.003162 µM) | relative viability (Gemcitabine + Vorinostat; first compound 0.01 µM) | relative viability (Gemcitabine + Vorinostat; first compound 0.03162 µM) | relative viability (Gemcitabine + Vorinostat; first compound 0.1 µM) | relative viability (Gemcitabine + Olaparib; first compound 0.001 µM) | relative viability (Gemcitabine + Olaparib; first compound 0.003162 µM) | relative viability (Gemcitabine + Olaparib; first compound 0.01 µM) | relative viability (Gemcitabine + Olaparib; first compound 0.03162 µM) | relative viability (Gemcitabine + Olaparib; first compound 0.1 µM) |
| --- | --- | --- | --- | --- | --- | --- | --- | --- | --- | --- | --- | --- | --- | --- | --- | --- | --- | --- | --- | --- |
| LCLC-97TM1 | 0.147 | 0.159 | 0.117 | 0.104 | 0.136 | 0.174 | 0.19 | 0.0994 | 0.0729 | 0.0912 | 0.51 | 0.314 | 0.149 | 0.0661 | 0.0642 | 0.331 | 0.178 | 0.0884 | 0.0632 | 0.0703 |
| LCLC-103H | 1.02 | 1.21 | 0.998 | 0.76 | 0.509 | 0.423 | 0.435 | 0.44 | 0.407 | 0.392 | 0.761 | 0.856 | 0.754 | 0.585 | 0.46 | 0.771 | 0.758 | 0.734 | 0.58 | 0.367 |
| LK-2 | 0.6 | 0.485 | 0.433 | 0.196 | 0.156 | 0.298 | 0.321 | 0.238 | 0.14 | 0.114 | 0.265 | 0.268 | 0.155 | 0.164 | 0.146 | 0.878 | 0.722 | 0.386 | 0.153 | 0.148 |
| LOU-NH91 | 0.922 | 0.686 | 0.547 | 0.311 | 0.281 | 0.397 | 0.413 | 0.441 | 0.269 | 0.286 | 0.943 | 0.761 | 0.421 | 0.22 | 0.268 | 0.92 | 0.781 | 0.501 | 0.223 | 0.264 |
| LU99A | 0.601 | 0.597 | 0.487 | 0.576 | 0.554 | 0.177 | 0.181 | 0.186 | 0.198 | 0.214 | 0.509 | 0.577 | 0.502 | 0.523 | 0.531 | 0.255 | 0.272 | 0.286 | 0.226 | 0.221 |
| LXF-289 | 0.957 | 0.953 | 0.751 | 0.147 | 0.107 | 0.901 | 0.964 | 0.642 | 0.102 | 0.0843 | 0.754 | 0.731 | 0.292 | 0.107 | 0.0902 | 1.07 | 0.935 | 0.303 | 0.0848 | 0.0776 |
| NCI-H23 | 0.447 | 0.226 | 0.123 | 0.11 | 0.118 | 0.555 | 0.223 | 0.147 | 0.143 | 0.143 | 0.504 | 0.122 | 0.11 | 0.106 | 0.109 | 0.293 | 0.132 | 0.0825 | 0.109 | 0.0995 |
